Here are results for 28 compounds from patent US20240383898A1, “PYRIDO RING COMPOUND, PREPARATION METHOD THEREFOR, INTERMEDIATE, COMPOSITION, AND APPLICATION” (YIYOU BIOTECH (SHANGHAI) CO., LTD, priority 2021, published 2024).

Structures are written as SMILES.

Experiment [1] has as its target T1, JAK1 (Homo sapiens, UniProt P23458).
T1 construct: purchased Carna 08-114
Briefly: In vitro activity test of JAK1 kinase (Caliper EZ Reader conversion assay). Type of experiment: biochemical. The settings on record: enzyme activity, 10 concentrations from 1000 nM, 3-fold dilution. Put shortly: (§1)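 JAK1 or JAK2 pre-incubated with compound (top 1000 nM, 3-fold, 10 points, duplicate) for 10 min at room temperature, then ATP plus substrate added. Substrate conversion read by mobility-shift on Caliper EZ Reader after stop solution. Inhibition normalized to no-enzyme and DMSO controls; IC50 from variable-slope four-parameter fit.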

Experiment [2] addresses T2, JAK2 (Homo sapiens, UniProt O60674).
T2 construct: purchased Carna 08-045
The experiment can be described thus: In vitro activity test of JAK2 kinase (Caliper EZ Reader conversion assay). The format is biochemical. Conditions: enzyme activity, 10 concentrations from 1000 nM, 3-fold dilution. Put shortly:
as §1

T1 sequence (P23458 whole entry, species assumed): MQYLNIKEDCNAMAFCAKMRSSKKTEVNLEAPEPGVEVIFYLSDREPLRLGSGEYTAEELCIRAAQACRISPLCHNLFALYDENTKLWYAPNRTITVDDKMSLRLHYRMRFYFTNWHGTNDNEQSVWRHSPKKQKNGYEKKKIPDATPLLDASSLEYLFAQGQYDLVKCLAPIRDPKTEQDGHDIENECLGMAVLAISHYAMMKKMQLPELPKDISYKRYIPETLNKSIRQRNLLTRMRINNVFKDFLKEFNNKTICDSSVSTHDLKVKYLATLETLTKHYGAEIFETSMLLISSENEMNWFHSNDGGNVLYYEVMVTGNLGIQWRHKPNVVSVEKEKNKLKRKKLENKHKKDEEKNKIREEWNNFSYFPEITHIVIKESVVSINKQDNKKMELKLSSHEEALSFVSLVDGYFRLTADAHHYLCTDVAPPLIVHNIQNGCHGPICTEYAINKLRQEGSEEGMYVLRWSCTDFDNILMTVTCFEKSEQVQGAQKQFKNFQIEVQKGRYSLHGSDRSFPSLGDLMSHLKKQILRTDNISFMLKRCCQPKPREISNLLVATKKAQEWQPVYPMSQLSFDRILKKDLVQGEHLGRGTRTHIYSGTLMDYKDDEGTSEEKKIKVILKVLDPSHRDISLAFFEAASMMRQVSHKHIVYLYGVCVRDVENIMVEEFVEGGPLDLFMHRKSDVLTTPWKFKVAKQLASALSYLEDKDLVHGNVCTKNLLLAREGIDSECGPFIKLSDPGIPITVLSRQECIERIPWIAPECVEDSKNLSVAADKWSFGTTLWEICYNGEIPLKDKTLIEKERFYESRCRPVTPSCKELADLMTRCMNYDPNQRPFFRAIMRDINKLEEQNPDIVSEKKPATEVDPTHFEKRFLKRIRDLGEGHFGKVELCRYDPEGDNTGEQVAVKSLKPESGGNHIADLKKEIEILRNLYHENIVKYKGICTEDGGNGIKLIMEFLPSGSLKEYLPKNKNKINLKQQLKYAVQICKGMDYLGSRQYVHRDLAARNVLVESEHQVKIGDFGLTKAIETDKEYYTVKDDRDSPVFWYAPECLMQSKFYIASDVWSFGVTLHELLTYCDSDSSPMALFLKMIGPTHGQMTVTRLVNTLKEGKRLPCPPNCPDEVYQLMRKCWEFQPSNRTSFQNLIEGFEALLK
T2 sequence (O60674 whole entry, species assumed): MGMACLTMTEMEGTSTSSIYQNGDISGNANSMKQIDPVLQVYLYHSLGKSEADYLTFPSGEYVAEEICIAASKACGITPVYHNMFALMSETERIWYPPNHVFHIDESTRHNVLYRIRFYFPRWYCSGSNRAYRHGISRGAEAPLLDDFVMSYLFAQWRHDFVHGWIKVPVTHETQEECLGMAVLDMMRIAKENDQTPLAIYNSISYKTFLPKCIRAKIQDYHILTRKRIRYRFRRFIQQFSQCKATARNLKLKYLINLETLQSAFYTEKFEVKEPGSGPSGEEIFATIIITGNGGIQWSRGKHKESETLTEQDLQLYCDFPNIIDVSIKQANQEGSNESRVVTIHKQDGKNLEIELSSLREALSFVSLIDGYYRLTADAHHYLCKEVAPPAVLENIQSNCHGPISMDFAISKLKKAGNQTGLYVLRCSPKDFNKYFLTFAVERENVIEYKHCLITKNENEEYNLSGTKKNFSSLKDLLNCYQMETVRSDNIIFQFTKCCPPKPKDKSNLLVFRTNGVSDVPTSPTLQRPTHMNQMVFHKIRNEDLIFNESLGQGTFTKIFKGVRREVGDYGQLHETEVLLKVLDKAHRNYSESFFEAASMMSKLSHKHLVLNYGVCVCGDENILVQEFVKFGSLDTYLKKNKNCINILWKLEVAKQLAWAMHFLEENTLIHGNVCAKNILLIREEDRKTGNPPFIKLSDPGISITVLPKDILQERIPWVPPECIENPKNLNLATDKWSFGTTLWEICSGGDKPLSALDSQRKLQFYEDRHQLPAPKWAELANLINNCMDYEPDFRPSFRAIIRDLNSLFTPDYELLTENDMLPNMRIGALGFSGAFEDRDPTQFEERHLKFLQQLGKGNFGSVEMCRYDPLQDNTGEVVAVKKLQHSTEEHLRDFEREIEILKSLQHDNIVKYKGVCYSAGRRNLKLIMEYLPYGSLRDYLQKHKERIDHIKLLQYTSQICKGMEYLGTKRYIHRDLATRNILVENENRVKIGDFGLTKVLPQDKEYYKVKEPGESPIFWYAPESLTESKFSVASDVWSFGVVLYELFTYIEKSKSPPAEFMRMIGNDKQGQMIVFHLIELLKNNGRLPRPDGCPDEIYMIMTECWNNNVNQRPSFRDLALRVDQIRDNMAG

On to `C[C@@H](O)c1nc2cnc3[nH]ccc3c2n1[C@H]1CCN(CCCC(F)(F)F)C1` [LXS71, (R)-1-(1-((S)-1-(4,4,4-Trifluorobutyl)pyrrolidin-3-yl)-1,6-dihydroimidazo[4,5-d]pyrrolo[2,3-b]pyridin-2-yl)ethanol], for which the IC50 in experiment [1] was below 10 nM; in experiment [2], 100 to 1000 nM.

As for `C[C@@H](O)c1nc2cnc3[nH]ccc3c2n1[C@@H]1CN(CCCCC#N)CC12CC2` [LXS72, 5-((S)-7-(2-((R)-1-Hydroxyethyl)imidazo[4,5-d]pyrrolo[2,3-b]pyridin-1(6H)-yl)-5-azaspiro[2,4]hept-5-yl)pentanonitrile], the IC50 in experiment [1] and in experiment [2] was 10 to 100 nM throughout.

`C[C@@H](O)c1nc2cnc3[nH]ccc3c2n1[C@H]1CCN(CCCCCF)C1` [LXS73, (R)-1-(1-((S)-1-(5-fluoropentyl)pyrrolidin-3-yl)-1,6-dihydroimidazo[4,5-d]pyrrolo[2,3-b]pyridin-2-yl) ethanol]: the IC50 in experiment [1] is below 10 nM; in experiment [2], 100 to 1000 nM.

`C[C@@H](O)c1nc2cnc3[nH]ccc3c2n1[C@H]1CCN(CC(=O)NCC(F)(F)F)C1` [LXS74, 2-((S)-3-(2-((R)-1-Hydroxyethyl)imidazo[4,5-d]pyrrolo[2,3-b]pyridin-1(6H)-yl)pyrrolidin-1-yl)-N-(2,2,2-trifluoroethyl)acetamide]: the IC50 is below 10 nM in experiment [1] and 100 to 1000 nM in experiment [2].

`CC(C(=O)NCC(F)(F)F)N1CC[C@H](n2c([C@@H](C)O)nc3cnc4[nH]ccc4c32)C1` (stereo partly drawn) [LXS75, 2-((S)-3-(2-((R)-1-Hydroxyethyl)imidazo[4,5-d]pyrrolo[2,3-b]pyridin-1(6H)-yl)pyrrolidin-1-yl)-N-(2,2,2-trifluoroethyl)propanamide]: the 50% inhibitory concentration (IC50) is below 10 nM in experiment [1] and 100 to 1000 nM in experiment [2].

Regarding `CCC(C(=O)NCC(F)(F)F)N1CC[C@H](n2c([C@@H](C)O)nc3cnc4[nH]ccc4c32)C1` (stereo partly drawn) [LXS76, 2-((S)-3-(2-((R)-1-Hydroxyethyl)imidazo[4,5-d]pyrrolo[2,3-b]pyridin-1(6H)-yl)pyrrolidin-1-yl)-N-(2,2,2-trifluoroethyl)butanamide], the IC50 in experiment [1] was below 10 nM; in experiment [2] it was 100 to 1000 nM.

For `CCS(=O)(=O)N1CC(CC#N)(n2cc(-n3c(-c4ccc(C)o4)nc4cnc5[nH]ccc5c43)cn2)C1` [LXS77, 2-(1-(ethylsulfonyl)-3-(4-(2-(5-methylfuran-2-yl)imidazolyl[4,5-d]pyrrolo[2,3-b]pyridin-1(6H)-yl)-1H-pyrazol-1-yl)azetidin-3-yl) acetonitrile], the IC50 in experiment [1] was 100 to 1000 nM; in experiment [2], below 10 nM.

For the compound `N#CCn1cc(-n2c(C(F)(F)F)nc3cnc4[nH]ccc4c32)cn1` [LXS78, 2-(4-(2-(Trifluoromethyl)imidazo[4,5-d]pyrrolo[2,3-b]pyridin-1(6H)-yl)-1H-pyrazol-1-yl)acetonitrile], the IC50 in experiment [1] and in experiment [2] was 10 to 100 nM throughout.

As to `N#CCCn1cc(-n2cnc3cnc4[nH]ccc4c32)cn1` [LXS79, 3-(4-(Imidazo[4,5-d]pyrrolo[2,3-b]pyridin-1(6H)-yl)-1H-pyrazol-1-yl)propanenitrile], the IC50 in experiment [1] was 100 to 1000 nM; in experiment [2], below 10 nM.

For the compound `N#CCCn1cc(-n2c(-c3ccccc3Cl)nc3cnc4[nH]ccc4c32)cn1` [LXS80, 3-(4-(2-(2-Chlorophenyl)imidazo[4,5-d]pyrrolo[2,3-b]pyridin-1(6H)-yl)-1H-pyrazol-1-yl)propanenitrile], the IC50 in experiment [1] and in experiment [2] was 10 to 100 nM throughout.

Regarding `N#CCn1cc(-n2c(-c3ccc(CO)o3)nc3cnc4[nH]ccc4c32)cn1` [LXS81, 2-(4-(2-(5-(Hydroxymethyl)furan-2-yl)imidazo[4,5-d]pyrrolo[2,3-b]pyridin-1(6H)-yl)-1H-pyrazol-1-yl)acetonitrile], the IC50 in experiment [1] and in experiment [2] was 10 to 100 nM each time.

Turning to `N#CCCn1cc(-n2c(-c3cccc(O)c3)nc3cnc4[nH]ccc4c32)cn1` [LXS82, 3-(4-(2-(3-Hydroxyphenyl)imidazo[4,5-d]pyrrolo[2,3-b]pyridin-1(6H)-yl)-1H-pyrazol-1-yl)propanenitrile], the IC50 in experiment [1] and in experiment [2] was 10 to 100 nM each time.

In the case of `N#CCCn1cc(-n2c(-c3ccccc3F)nc3cnc4[nH]ccc4c32)cn1` [LXS83, 3-(4-(2-(2-Fluorophenyl)imidazo[4,5-d]pyrrolo[2,3-b]pyridin-1(6H)-yl)-1H-pyrazol-1-yl)propanenitrile], the IC50 in experiment [1] and in experiment [2] was 10 to 100 nM throughout.

With `C[C@@H](O)c1nc2cnc3[nH]ncc3c2n1[C@H]1CCN(CCCC#N)C1` [LXS85, 4-((S)-3-(2-((R)-1-Hydroxyethyl)imidazo[4,5-d]pyrazolo[3,4-b]pyridin-1(6H)-yl)pyrrolidin-1-yl)butanenitrile], the IC50 is below 10 nM in experiment [1] and 100 to 1000 nM in experiment [2].

As for `C[C@@H](O)c1nc2cnc3[nH]ccc3c2n1[C@@H]1CN(CCCC(F)(F)F)CC1F` (stereo partly drawn) [LXS86, (1R)-1-(1-((3R)-4-fluoro-1-(4,4,4-trifluorobutyl)pyrrolidin-3-yl)-1,6-dihydroimidazo[4,5-d]pyrrolo[2,3-b]pyridin-2-yl)ethan-1-ol], the concentration for half-maximal inhibition (IC50) in experiment [1] is below 10 nM; in experiment [2], 100 to 1000 nM.

As for `C[C@@H](O)c1nc2cnc3[nH]ccc3c2n1[C@@H]1CN(CCCC(F)(F)F)C[C@H]1F` [LXS87, (R)-1-(1-((3R,4R)-4-fluoro-1-(4,4,4-trifluorobutyl)pyrrolidin-3-yl)-1,6-dihydroimidazo[4,5-d]pyrrolo[2,3-b]pyridin-2-yl)ethan-1-ol], the IC50 in experiment [1] is below 10 nM; in experiment [2] it was 100 to 1000 nM.

As to `C[C@@H](O)c1nc2cnc3[nH]ccc3c2n1[C@H]1C[C@@H](CO)N(CCCC(F)(F)F)C1` [LXS89, (R)-1-(1-((3S,5S)-5-(hydroxymethyl)-1-(4,4,4-trifluorobutyl)pyrrolidin-3-yl)-1,6-dihydroimidazo[4,5-d]pyrrolo[2,3-b]pyridin-2-yl)ethan-1-ol], the figures for the IC50 in experiment [1] and in experiment [2] were 10 to 100 nM and 100 to 1000 nM, respectively.

For `C[C@@H](O)c1nc2cnc3[nH]ncc3c2n1[C@H]1CCN(CCCC(F)(F)F)C1` [LXS90, (R)-1-(1-((S)-1-(4,4,4-trifluorobutyl)pyrrolidin-3-yl)-1,6-dihydroimidazo[4,5-d]pyrazolo[3,4-b]pyridin-2-yl)ethan-1-ol], the results for the IC50 in experiment [1] and in experiment [2] were 10 to 100 nM and 100 to 1000 nM, respectively.

In the case of `C[C@@H](O)c1nc2cnc3[nH]ccc3c2n1[C@H]1C[C@H](CO)N(CCCC(F)(F)F)C1` [LXS91, (R)-1-(1-((3S,5R)-5-(hydroxymethyl)-1-(4,4,4-trifluorobutyl)pyrrolidin-3-yl)-1,6-dihydroimidazo[4,5-d]pyrrolo[2,3-b]pyridin-2-yl)ethan-1-ol], the IC50 in experiment [1] is below 10 nM; in experiment [2] it was 100 to 1000 nM.

Turning to `C[C@@H](O)c1nc2cnc3[nH]ncc3c2n1[C@@H]1CN(CCCC#N)CC1F` (stereo partly drawn) [LXS93, 4-((4R)-3-Fluoro-4-(2-((R)-1-hydroxyethyl)imidazo[4,5-d]pyrazolo[3,4-b]pyridin-1(6H)-yl)pyrrolidin-1-yl)butanenitrile], the IC50 is below 10 nM in experiment [1] and 100 to 1000 nM in experiment [2].

On to `C[C@@H](O)c1nc2cnc3[nH]ncc3c2n1[C@H]1C[C@@H](CO)N(CCCC#N)C1` [LXS94, 4-((2S,4S)-4-(2-((R)-1-Hydroxyethyl)imidazo[4,5-d]pyrazolo[3,4-b]pyridin-1(6H)-yl)-2-(hydroxymethyl)pyrrolidin-1-yl)butanenitrile], for which the IC50 was in the range of 10 to 100 nM in experiment [1] and 100 to 1000 nM in experiment [2].

On to `C[C@@H](O)c1nc2cnc3[nH]ccc3c2n1[C@H]1CCN(CCC(F)(F)F)C1` [LXS96, (R)-1-(1-((S)-1-(3,3,3-trifluoropropyl)pyrrolidin-3-yl)imidazo[4,5-d]pyrrolo[2,3-b]pyridin-2-yl)ethanol], for which the IC50 in experiment [1] is below 10 nM; in experiment [2], 100 to 1000 nM.

Consider `C[C@@H](O)c1nc2cnc3[nH]ccc3c2n1[C@H]1CCN(CCC(F)(F)C(F)(F)F)C1` [LXS97, (R)-1-(1-((S)-1-(3,3,4,4,4-Pentafluorobutyl)pyrrolidin-3-yl)imidazo[4,5-d]pyrrolo[2,3-b]pyridin-2-yl)ethanol], for which the IC50 is below 10 nM in experiment [1] and 100 to 1000 nM in experiment [2].

In the case of `OCc1ccc(-c2nc3cnc4[nH]ccc4c3n2[C@H]2CCN(CCCC(F)(F)F)C2)o1` [LXS98, (S)-(5-(1-(1-(4,4,4-trifluorobutyl)pyrrolidin-3-yl)-1,6-dihydroimidazo[4,5-d]pyrrolo[2,3-b]pyridin-2-yl)furan-2-yl)methanol], the IC50 in experiment [1] and in experiment [2] was 10 to 100 nM throughout.

As for `Oc1cccc(-c2nc3cnc4[nH]ccc4c3n2[C@H]2CCN(CCCC(F)(F)F)C2)c1` [LXS99, (S)-3-(1-(1-(4,4,4-trifluorobutyl)pyrrolidin-3-yl)-1,6-dihydroimidazo[4,5-d]pyrrolo[2,3-b]pyridin-2-yl)phenol], the IC50 in experiment [1] and in experiment [2] was 10 to 100 nM throughout.

Regarding `C[C@@H](O)c1nc2cnc3[nH]ccc3c2n1[C@H]1CCN(CC(F)(F)C(F)(F)C(F)(F)F)C1` [LXS100, (R)-1-(1-((S)-1-(2,2,3,3,4,4,4-Heptafluorobutyl)pyrrolidin-3-yl)imidazo[4,5-d]pyrrolo[2,3-b]pyridin-2-yl)ethanol], the figures for the half-maximal inhibitory concentration (IC50) in experiment [1] and in experiment [2] were below 10 nM and 100 to 1000 nM, respectively.

Regarding `C[C@@H](O)c1nc2cnc3[nH]ccc3c2n1[C@H]1CCN(C(F)(F)C(F)(F)C(F)(F)C(F)(F)F)C1` [LXS101, (R)-1-(1-((S)-1-(Perfluoro-butyl)pyrrolidin-3-yl)-1,6-dihydroimidazo[4,5-d]pyrrolo[2,3-b]pyridin-2-yl)ethanol], the IC50 in experiment [1] is below 10 nM; in experiment [2], 100 to 1000 nM.

For `C[C@@H](O)c1nc2cnc3[nH]ccc3c2n1[C@H]1CCN(S(=O)(=O)CCC(F)(F)F)C1` [LXS102, (R)-1-(1-((S)-1-((3,3,3-Trifluoropropyl)sulfonyl)pyrrolidin-3-yl)imidazo[4,5-d]pyrrolo[2,3-b]pyridin-2-yl)ethanol], the IC50 in experiment [1] is below 10 nM; in experiment [2], 100 to 1000 nM.
